Data on 4 molecules can be found in ChEMBL document CHEMBL1158363, “Circular dichroism studies of type III collagen mimetic peptides with anti- or pro-aggregant activities on human platelets” (2009).

Each structure is given as a SMILES string. The source made the active and inactive calls. No cut-off for these calls is given here. Where a SMILES comes first, the peptide text is derived from it. [ ]: non-standard residue; d: D form. Hyp = O=C(O)[C@@H]1C[C@@H](O)CN1

As a reminder, the inhibition is how much of the control response was suppressed.

The test deals with Platelet. Kind of test: Inhibition of type III collagen-induced platelet aggregation in human platelet rich plasma at 1 mM. It counts as functional.

`NCCCC[C@H](NC(=O)[C@@H]1CCCN1C(=O)CNC(=O)[C@@H]1C[C@@H](O)CN1C(=O)[C@H](CCC(=O)O)NC(=O)CNC(=O)[C@@H]1C[C@@H](O)CN1C(=O)[C@@H](N)CCCCN)C(=O)O` (H-K[Hyp]GE[Hyp]GPK-OH) displayed an inhibition at 1000 µM of 86.1%.

In the case of `C[C@H](NC(=O)[C@@H]1C[C@@H](O)CN1C(=O)[C@@H](N)CCCCN)C(=O)N[C@@H](CCC(=O)O)C(=O)N1C[C@H](O)C[C@H]1C(=O)N[C@@H](C)C(=O)N1CCC[C@H]1C(=O)N[C@@H](CCCCN)C(=O)O` (H-K[Hyp]AE[Hyp]APK-OH), the inhibition entry is “inactive”.

Take `C[C@H](NC(=O)[C@@H]1C[C@@H](O)CN1C(=O)[C@H](CCC(=O)O)NC(=O)CNC(=O)[C@@H]1C[C@@H](O)CN1C(=O)[C@@H](N)CCCCN)C(=O)N1CCC[C@H]1C(=O)N[C@@H](CCCCN)C(=O)O` (H-K[Hyp]GE[Hyp]APK-OH): the inhibition at 1000 µM is 72.1%.

As to `NCCCC[C@H](NC(=O)[C@H](CCCCN)NC(=O)[C@@H]1C[C@@H](O)CN1C(=O)[C@@H]1C[C@@H](O)CN1)C(=O)N[C@@H](CCC(=O)O)C(=O)N1CCC[C@H]1C(=O)NCC(=O)NCC(=O)O` (H-[Hyp][Hyp]KKEPGG-OH), the inhibition result was “inactive”.
